According to patent publication US5004833A, “KS-501 derivatives” (Kyowa Hakko Kogyo Co., Ltd., priority 1988, dated 1991):
In brackets after ≈: the same amount, converted by molar mass. Where two headings read alike, the source gives them in different places.

Tested on: washed platelet
Assay: Effect on platelet aggregation (washed platelets stimulated with thrombin or platelet-activating factor, Born method)
Assay type: cell-based, white rabbit
Conditions: for IC50: Oryctolagus cuniculus, 0.05 h, 3 min incubation, 37° C.
Procedure: 8.5 vol of blood was collected from the carotid arteries of a white rabbit, and placed in a tube containing 1.5 vol of a citrate-dextrose solution (71 mM citric acid, 85 mM sodium citrate and 111 mM dextrose). The thus obtained blood was centrifuged at 200 xg for 15 minutes to obtain platelet-rich plasma (PRP). This PRP was centrifuged at 650×g for 10 minutes to obtain platelet precipitates. After washing with Ca^++ -free Tyrode's solution containing 2 mM ethylenebis(oxyethylenenitrilo)tetraacetic acid (hereinafter referred to as EGTA), the platelet precipitates were centrifuged again at 650×g for 10 minutes for washing. The resulting platelet precipitates were suspended in Ca^++ -free Tyrode's solution containing 0.25% bovine serum albumin to reach a density of 5×10^8 cells/ml. After allowing to stand for about 30 minutes, 1 mM CaCl2 or 1 mM EGTA was added to the suspension of the washed platelet. The mixture was allowed to stand for further 30 minutes, and then platelet aggregation was measured.
The platelet aggregation was measured with an aggregometer, ACGRETEC TE-500 (product of Erma Optical Co., Ltd.) to which the Born method was applied.
First, 10 μl portions of a test compound solution were added to 0.2 ml portions of the suspension of the washed platelet, while stirring at 1,000 rpm and at 37° C. After incubation at 37° C. for 3 minutes, 10 μl portions of a stimulating agent thrombin (final concentration : 0.05 U/ml) or platelet-activating factor (final concentration: 10^-10 M) were added thereto, respectively to initiate the reaction. The rate of platelet aggregation inhibition of the test compound were calculated from the maximum aggregation rate obtained by the use of the test compound and the maximum aggregation rate obtained by use of only the solvent used for dissolving the test compound, according to the following equation. The effect of the test compound was determined as the drug concentration which gave the inhibition rate of 50%. [formula] A: maximum aggregation rate in use of the solvent alone B: maximum aggregation rate in use of the test compound

For CCCCCCCc1cc(O)cc(OC(=O)c2c(O)cc(O)cc2CCCCCCC)c1 [Compound 4], the IC50 (stimulating agent platelet-activating factor, final concentration 10^-10 M, read-out: IC50 (platelet aggregation inhibition, stimulating agent platelet-activating factor)) was 45 µg/mL (≈ 102 µM), the IC50 (Platelet, stimulating agent thrombin, final concentration 0.05 U/ml, read-out: IC50 (platelet aggregation inhibition, stimulating agent thrombin)) was 72 µg/mL (≈ 163 µM) and the “inhibition of platelet aggregation, in words” value (stimulated with thrombin and platelet-activating factor) was “inhibited platelet aggregation”.
